The test system of one test is TNF-α. In words: LPS-stimulated whole bovine blood assay, MSD cytokine detection. Type of test: cell-based. The settings on record: Bos taurus, LPS-stimulated bovine whole blood; read-out: TNF-α (IC50 μM).
In the next test the test system is IL-1β. The description is as above. The class given is cell-based. The settings on record: overstimulation of IL-1β, LPS-stimulated bovine whole blood.
The subject of the next test is IL-6. Described as above. The conditions noted are these: Bos taurus, LPS-stimulated bovine whole blood; read-out: IL-6 (IC50 μM). Type of test: cell-based. The text has this: In order to correlate RNA sequencing data to cytokine changes the whole blood assay was utilized. […] The enhancement result represents an overall stimulation of cytokine levels due to cellular stress or potential toxicity with increasing concentrations of the compound, representing a typical bell shape response curve for immunomodulatory activity.

In another test the test system is P. multocida 46572. The test can be described thus: In vivo mouse lung infection challenge model (murine efficacy). On the set-up: species or system CD-1 female mice. The settings on record: 20 mg/kg subcutaneous, P. multocida challenge; harmonized against the comparative vehicle survival rate. As for the experimental part:
The challenge organism was P. multocida 46572. Target challenge concentration was 5×10^2 CFU/mouse. Isolated colonies from overnight growth (37° C. with 5% CO2) on trypticase soy agar (TSA II) blood plates were transferred to room temperature Brain Heart Infusion Broth (BHIB). The broth culture was incubated 3.5-4 hours to approximately mid-log phase of growth, as measured by forward light scatter at 600 nm (OD600, 0.200). The culture was centrifuged to collect the bacterial pellet. The pellet was re-suspended in BHIB and adjusted to provide an approximate concentration of 2.7 log^10 colony forming units (CFU) in 0.04 mL at the highest concentration. The challenge inoculum concentration was confirmed by serial dilutions of the inoculum for CFU enumeration. On Day −5, CD-1 female mice were received. Mice were given standard rodent diet and water ad libitum. On Day 0, bacterial inoculum (0.04 mL) was administered to each mouse (n=36) intranasally. Compounds of the invention were dosed at 20 mg/kg (0.1 mL) in a buffered (˜pH 5.4) propylene glycol, monothioglycerol and water solution by subcutaneous injection. Animals were observed from Days 1-10. The study was terminated on Day 10. In addition, some treatment groups were sampled at 6, 24, and 48 hours post bacterial challenge for RNA sequence analysis of lung tissue.
The murine efficacy model (P. multocida challenge) was optimized, and the treatment group size was powered to be able to observe statistically significant improvement of survival to expected ranges for immunomodulatory compounds. The experimental design was a randomized complete block design. Mice were individually identified and treatment groups comingled within a cage, with every treatment group equally represented across cages. Mortality was the primary variable. Mortality data was analyzed using a generalized mixed model with fixed effect of treatment and random effect of block. Survival time was also analyzed using the SAS PHREG (survival analysis) procedure to examine whether there were significant differences between treatment groups and the control group. Numerous compounds of the invention and M9 (positive control) were tested in this model at a dose of 20 mg/kg. Typical percent survival for no treatment control is in the range of 0-20% based on study to study variation in challenge inoculum and rate of infection. […] Mouse survival for M9 was about 90-100%, further supporting its antibacterial properties against the bacterial strain (Table 3). Survival values presented are harmonized against the comparative vehicle survival rate.

Test [1] relates to BRD pathogens, M. haemolytica and P. multocida. In words: MIC screening panel of BRD pathogens (antibacterial / non-antibacterial). The settings on record: read-out: antibacterial / non-antibacterial (MIC for the BRD pathogens).

One may read the IC50 as the concentration that inhibits the measured activity by half. Turning to `CC[C@H]1OC(=O)[C@H](C)[C@@H](O[C@H]2C[C@@](C)(OC)[C@@](C)(O)[C@H](C)O2)[C@H](C)[C@@H](O[C@@H]2O[C@H](C)C[C@H](N(C)C(=O)N(C)c3ccc(C(F)(F)F)cc3)[C@H]2O)[C@](C)(O)C[C@@H](C)CN[C@H](C)[C@@H](O)[C@]1(C)O` [Example B-13, 1-((2S,3R,4S,6R)-2-(((2R,3S,4R,5R,8R,10R,11R,12S,13S,14R)-2-ethyl-3,4,10-trihydroxy-13-(((2R,4R,5S,6S)-5-hydroxy-4-methoxy-4,5,6-trimethyltetrahydro-2H-pyran-2-yl)oxy)-3,5,8,10,12,14-hexamethyl-15-oxo-1-oxa-6-azacyclopentadecan-11-yl)oxy)-3-hydroxy-6-methyltetrahydro-2H-pyran-4-yl)-1,3-dimethyl-3-(4-(trifluoromethyl)phenyl)urea], the IC50 in the test with TNF-α is 14 µM; in the test on IL-6, 51 µM. Further, the “IL-1β OS of LPS” value with IL-1β was 16 µM. Moreover, the “Mouse Murine Percent Survival” value with P. multocida 46572 is 48%. Further, the MIC in test [1] was more than 64 µg/mL.
On the same counts, the results for `CCCNC[C@]1(O)[C@H](C)O[C@@H](O[C@H]2[C@H](C)[C@@H](O[C@@H]3O[C@H](C)C[C@H](N(C)C(=O)N(C)c4ccc(C(F)(F)F)cc4)[C@H]3O)[C@](C)(O)C[C@@H](C)CN[C@H](C)[C@@H](O)[C@](C)(O)[C@@H](CC)OC(=O)[C@@H]2C)C[C@@]1(C)OC` [Example H-13, 1-((2S,3R,4S,6R)-2-(((2R,3S,4R,5R,8R,10R,11R,12S,13S,14R)-2-ethyl-3,4,10-trihydroxy-13-(((2R,4R,5S,6S)-5-hydroxy-4-methoxy-4,6-dimethyl-5-((propylamino)methyl)tetrahydro-2H-pyran-2-yl)oxy)-3,5,8,10,12,14-hexamethyl-15-oxo-1-oxa-6-azacyclopentadecan-11-yl)oxy)-3-hydroxy-6-methyltetrahydro-2H-pyran-4-yl)-1,3-dimethyl-3-(4-(trifluoromethyl)phenyl)urea] are 12 µM, 9 µM, 6 µM, 59% and more than 64 µg/mL.
On the same counts, the results for `CCCNC[C@]1(O)[C@H](C)O[C@@H](O[C@H]2[C@H](C)[C@@H](O[C@@H]3O[C@H](C)C[C@H](N(C)C(=O)N(c4ccccc4)c4ccccc4)[C@H]3O)[C@](C)(O)C[C@@H](C)CN[C@H](C)[C@@H](O)[C@](C)(O)[C@@H](CC)OC(=O)[C@@H]2C)C[C@@]1(C)OC` [Example H-39, 1-((2S,3R,4S,6R)-2-(((2R,3S,4R,5R,8R,10R,11R,12S,13S,14R)-2-ethyl-3,4,10-trihydroxy-13-(((2R,4R,5S,6S)-5-hydroxy-4-methoxy-4,6-dimethyl-5-((propylamino)methyl)tetrahydro-2H-pyran-2-yl)oxy)-3,5,8,10,12,14-hexamethyl-15-oxo-1-oxa-6-azacyclopentadecan-11-yl)oxy)-3-hydroxy-6-methyltetrahydro-2H-pyran-4-yl)-1-methyl-3,3-diphenylurea] are 21 µM, 19 µM, 6 µM, 44% and more than 64 µg/mL.

The record behind these values is patent US12295936B2, “Immunomodulating urea azalides” (Zoetis Services LLC, priority 2020, dated 2025).
